Reference: patent US12371454B2, “Cyclic peptide compound having Kras inhibitory action” (priority 2019, dated 2025)
Positions of bridges follow the written chain, without caps; N, C: chain ends. Non-standard residues stand in square brackets, D forms with d. Residues, ends and D or L forms follow the SMILES beside them. *: point of attachment. hPhe(3-Cl-4-CF3) = N[C@@H](CCc1ccc(C(F)(F)F)c(Cl)c1)C(=O)O; hPhe(3-F,4-CF3) = N[C@@H](CCc1ccc(C(F)(F)F)c(F)c1)C(=O)O; NMeAbu(4,4,4-F3) = CN[C@@H](CC(F)(F)F)C(=O)O; NMePhe(3-Cl) = CN[C@@H](Cc1cccc(Cl)c1)C(=O)O; NMePhe(4-Me) = CN[C@@H](Cc1ccc(C)cc1)C(=O)O; NMeAla(cPr) = CN[C@@H](CC1CC1)C(=O)O; NMeGly(cBu) = CN[C@H](C(=O)O)C1CCC1; NMeCha = CN[C@@H](CC1CCCCC1)C(=O)O; NMeChg = CN[C@H](C(=O)O)C1CCCCC1; NMeI = CC[C@H](C)[C@H](NC)C(=O)O; NMeD = CN[C@@H](CC(=O)O)C(=O)O; NMeL = CN[C@@H](CC(C)C)C(=O)O; NMeNva = CCC[C@H](NC)C(=O)O; NMeV = CN[C@H](C(=O)O)C(C)C; d(β3hA) = C[C@@H](N)CC(=O)O; NMeS = CN[C@@H](CO)C(=O)O; Morpholide = C1CN(*)CCO1; NMeA = CN[C@@H](C)C(=O)O; Piperidide = C1CCN(*)CC1; Pyrrolidide = C1CCN(*)C1; Ac5c = NC1(C(=O)O)CCCC1; Aze = O=C(O)[C@@H]1CCN1; Sar = CNCC(=O)O; Propyl = CCC*

How the values were obtained:
[1] = biological target: T1, Kras and SOS1 (biotin-tagged human Kras loaded with GDP, His-tagged human SOS1) (Homo sapiens, UniProt P01116, G12D); assay: Protein-protein interaction inhibition between Kras and SOS1 (KrasGl2D-SOS PPI) using AlphaScreen; type: binding; conditions: AlphaScreen; biotin-tagged human Kras loaded with GDP, His-tagged human SOS1; read-out: KRAS G12D-SOS PPI IC50
T1 construct: made in house; host or cells: E. coli (stated for Kras only)
Summary of the method: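 Donor beads (nickel) hold His-SOS1; acceptor beads (streptavidin) hold biotin-Kras bound to GDP. Signal measured at 520-620 nm following 680 nm excitation.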

[2] = system: Human pancreatic cancer cell line AsPC-1; assay: Measurement of AsPC-1 cell growth inhibition (AsPC-1 CGI); type: cell-based; conditions: 96 h
Summary of the method: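 AsPC-1 cells in 15% FBS RPMI-1640 were exposed to test compound for 96 hours at 37° C, with CellTiter-Glo as endpoint.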

T1 sequence (P01116 1-188 isoform P01116-2 G12D): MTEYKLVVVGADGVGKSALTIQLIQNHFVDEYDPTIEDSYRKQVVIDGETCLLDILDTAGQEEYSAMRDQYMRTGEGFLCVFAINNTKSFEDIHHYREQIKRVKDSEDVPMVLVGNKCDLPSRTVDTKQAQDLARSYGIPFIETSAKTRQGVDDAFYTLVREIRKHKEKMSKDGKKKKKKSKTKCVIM

Structure (SMILES)	IC50 [1]	IC50 [2]
CC[C@H](C)[C@@H]1NC(=O)[C@H](CC(F)(F)F)N(C)C(=O)C[C@@H](C(=O)N2CCOCC2)N(C)C(=O)[C@H](C2CCCCC2)N(C)C(=O)C2(CCCC2)NC(=O)[C@@H]2CCCN2C(=O)[C@H](CCc2ccc(C(F)(F)F)c(Cl)c2)NC(=O)CN(C)C(=O)[C@H](CC2CCCCC2)N(C)C(=O)CN(C)C(=O)CN(C)C1=O [Compound 774] ([NMeAbu(4,4,4-F3)]I[Sar][Sar][NMeCha][Sar][hPhe(3-Cl-4-CF3)]P[Ac5c][NMeChg][NMeD]-Morpholide; lactam N-11)	0.55 nM	20 to 50 nM
CCC[C@H]1C(=O)N[C@@H]([C@@H](C)CC)C(=O)N(C)CC(=O)N(C)CC(=O)N(C)[C@@H](CC2CCCCC2)C(=O)N(C)CC(=O)N[C@@H](CCc2ccc(C(F)(F)F)c(Cl)c2)C(=O)N2CCC[C@H]2C(=O)NC2(CCCC2)C(=O)N(C)[C@@H](C2CCCCC2)C(=O)N(C)[C@H](C(=O)N2CCCCC2)CC(=O)N1C [Compound 778] ([NMeNva]I[Sar][Sar][NMeCha][Sar][hPhe(3-Cl-4-CF3)]P[Ac5c][NMeChg][NMeD]-Piperidide; lactam N-11)	0.7 nM	20 to 50 nM
CC[C@H](C)[C@@H]1NC(=O)[C@H](CC(C)C)N(C)C(=O)C[C@@H](C(=O)N(C)C)N(C)C(=O)[C@H]([C@@H](C)CC)N(C)C(=O)C2(CCCC2)NC(=O)[C@H](Cc2cccc(Cl)c2)N(C)C(=O)[C@H](CCc2ccc(C(F)(F)F)c(Cl)c2)NC(=O)CN(C)C(=O)[C@H](Cc2ccc(C)cc2)N(C)C(=O)[C@@H]2CCN2C(=O)[C@H](C)N(C)C1=O [Compound 783] ([NMeL]I[NMeA][Aze][NMePhe(4-Me)][Sar][hPhe(3-Cl-4-CF3)][NMePhe(3-Cl)][Ac5c][NMeI][NMeD]-NMe2; lactam N-11)	9.8 nM	50 to 100 nM
CC[C@H](C)[C@@H]1NC(=O)[C@H](CC(C)C)N(C)C(=O)C[C@@H](C(=O)N2CCCCC2)N(C)C(=O)[C@H](CC2CC2)N(C)C(=O)C2(CCCC2)NC(=O)[C@@H]2CCCN2C(=O)[C@H](CCc2ccc(C(F)(F)F)c(Cl)c2)NC(=O)CN(C)C(=O)[C@H](CC2CCCCC2)N(C)C(=O)CN(C)C(=O)CN(C)C1=O [Compound 787] ([NMeL]I[Sar][Sar][NMeCha][Sar][hPhe(3-Cl-4-CF3)]P[Ac5c][NMeAla(cPr)][NMeD]-Piperidide; lactam N-11)	2.9 nM	100 to 500 nM
CC[C@H](C)[C@@H]1NC(=O)[C@H](CC(C)C)N(C)C(=O)C[C@@H](C(=O)N2CCCC2)N(C)C(=O)[C@H](C(C)C)N(C)C(=O)C2(CCCC2)NC(=O)[C@@H]2CCCN2C(=O)[C@H](CCc2ccc(C(F)(F)F)c(F)c2)NC(=O)CN(C)C(=O)[C@H](CC2CCCCC2)N(C)C(=O)CN(C)C(=O)CN(C)C1=O [Compound 804] ([NMeL]I[Sar][Sar][NMeCha][Sar][hPhe(3-F,4-CF3)]P[Ac5c][NMeV][NMeD]-Pyrrolidide; lactam N-11)	0.99 nM	100 to 500 nM
CCCOC[C@H]1C(=O)N2CC[C@H]2C(=O)N(C)[C@@H](CC2CCCCC2)C(=O)N(C)CC(=O)N[C@@H](CCc2ccc(C(F)(F)F)c(Cl)c2)C(=O)N2CCC[C@H]2C(=O)NC2(CCCC2)C(=O)N(C)[C@@H](C(C)C)C(=O)N(C)[C@H](C(=O)N2CCCCC2)CC(=O)N(C)[C@@H](CC(C)C)C(=O)N[C@@H]([C@@H](C)CC)C(=O)N1C [Compound 809] ([NMeL]I[NMeS](Propyl)[Aze][NMeCha][Sar][hPhe(3-Cl-4-CF3)]P[Ac5c][NMeV][NMeD]-Piperidide; lactam N-11)	47 nM	100 to 500 nM
CC[C@H](C)[C@@H]1NC(=O)[C@H](CC(F)(F)F)N(C)C(=O)C[C@@H](C(=O)N2CCCC2)N(C)C(=O)[C@H](C2CCCCC2)N(C)C(=O)C2(CCCC2)NC(=O)[C@@H]2CCCN2C(=O)[C@H](CCc2ccc(C(F)(F)F)c(Cl)c2)NC(=O)CN(C)C(=O)[C@H](Cc2ccc(C)cc2)N(C)C(=O)CN(C)C(=O)CN(C)C1=O [Compound 814] ([NMeAbu(4,4,4-F3)]I[Sar][Sar][NMePhe(4-Me)][Sar][hPhe(3-Cl-4-CF3)]P[Ac5c][NMeChg][NMeD]-Pyrrolidide; lactam N-11)	0.41 nM	20 to 50 nM
CC[C@H](C)[C@@H]1NC(=O)[C@H](C2CCC2)N(C)C(=O)C[C@@H](C)NC(=O)[C@H](C(C)C)N(C)C(=O)C2(CCCC2)NC(=O)[C@@H]2CCCN2C(=O)[C@H](CCc2ccc(C(F)(F)F)c(Cl)c2)NC(=O)CN(C)C(=O)[C@H](CC2CCCCC2)N(C)C(=O)CN(C)C(=O)CN(C)C1=O [Compound 815] (cyclo([Ac5c][NMeV][d(β3hA)][NMeGly(cBu)]I[Sar][Sar][NMeCha][Sar][hPhe(3-Cl-4-CF3)]P))	26 nM	100 to 500 nM
